Test results from ChEMBL document CHEMBL5500349, “Discovery of ganoderic acid A (GAA) PROTACs as MDM2 protein degraders for the treatment of breast cancer” (Eur J Med Chem, 2024).
Calls of active or inactive are those of the source. The calls are words filed in the database; no cut-off is given here.

Columns and labels:
MCF7 = assay: Antiproliferative activity against human MCF7 cells assessed as cell viability at 100 uM incubated for 48 to 72 hrs by MTT assay; format: functional; conditions: time 48-72 hrs, read-out: Activity
MDA-MB-231 = assay: Antiproliferative activity against human MDA-MB-231 cells assessed as cell viability at 100 uM incubated for 48 to 72 hrs by MTT assay; format: functional; conditions: time 48-72 hrs, read-out: Activity
SJSA-1 = assay: Antiproliferative activity against human SJSA-1 cells assessed as cell viability at 100 uM incubated for 48 to 72 hrs by MTT assay; format: functional; conditions: time 48-72 hrs, read-out: Activity
HepG2 = assay: Antiproliferative activity against human HepG2 cells assessed as cell viability at 100 uM incubated for 48 to 72 hrs by MTT assay; format: functional; conditions: time 48-72 hrs, read-out: Activity
[1] = Cytotoxicity against mouse HT-22 cells assessed as cell viability at 100 uM incubated for 48 to 72 hrs by MTT assay; format: toxicity, cell-based; conditions: time 48-72 hrs, read-out: Activity
[2] = biological target: T1, von Hippel-Lindau disease tumor suppressor/E3 ubiquitin-protein ligase Mdm2 (Homo sapiens, UniProt Q00987+P40337); assay: Protac activity at VHL/MDM2 in human MCF7 cells assessed as reduction in MDM2 protein level at 100 uM after 48 hrs by Western blotting analysis; format: cell-based
T1 sequence (P40337 whole entry, looked up): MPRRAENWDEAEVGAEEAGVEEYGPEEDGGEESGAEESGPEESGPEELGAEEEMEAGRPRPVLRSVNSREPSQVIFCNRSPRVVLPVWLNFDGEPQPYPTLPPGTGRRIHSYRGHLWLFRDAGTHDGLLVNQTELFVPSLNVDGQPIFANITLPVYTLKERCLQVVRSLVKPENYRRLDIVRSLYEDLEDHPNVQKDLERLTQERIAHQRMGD
T1 sequence (Q00987 whole entry, looked up): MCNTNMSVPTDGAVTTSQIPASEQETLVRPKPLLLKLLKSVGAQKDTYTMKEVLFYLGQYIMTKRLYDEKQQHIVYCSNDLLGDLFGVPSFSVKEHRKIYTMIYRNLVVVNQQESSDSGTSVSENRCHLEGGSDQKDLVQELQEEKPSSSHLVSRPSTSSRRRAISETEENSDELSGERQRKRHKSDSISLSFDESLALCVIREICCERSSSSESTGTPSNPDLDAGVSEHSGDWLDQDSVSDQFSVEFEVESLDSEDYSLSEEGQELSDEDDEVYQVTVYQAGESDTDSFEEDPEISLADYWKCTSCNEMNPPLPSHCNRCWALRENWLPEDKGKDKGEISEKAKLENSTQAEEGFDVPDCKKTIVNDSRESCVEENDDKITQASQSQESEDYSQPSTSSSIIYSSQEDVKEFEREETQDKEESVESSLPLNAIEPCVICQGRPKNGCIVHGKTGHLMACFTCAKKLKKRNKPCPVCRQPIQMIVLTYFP

[3] = biological target: T1, von Hippel-Lindau disease tumor suppressor/E3 ubiquitin-protein ligase Mdm2; assay: Protac activity at VHL/MDM2 in human MDA-MB-231 cells assessed as reduction in MDM2 protein level at 80 uM after 48 hrs by Western blotting analysis; format: cell-based

Row | Activity [2] | Activity [3] | SMILES | viability at 100 µM (MCF7) | viability at 100 µM (MDA-MB-231) | viability at 100 µM (SJSA-1) | viability at 100 µM (HepG2) | viability at 100 µM [1]
1 |  |  | C[C@H](CC(=O)C[C@@H](C)[C@H]1C[C@H](O)[C@@]2(C)C3=C(C(=O)C[C@]12C)[C@@]1(C)CCC(=O)C(C)(C)[C@@H]1C[C@@H]3O)C(=O)NCc1cn(CCOCCOCCOCCNc2cccc3c2C(=O)N(C2CCC(=O)NC2=O)C3=O)nn1 (some centres not stated) | 83.4% | 74.7% | 67% | 91% | 78.2%
2 |  |  | Cc1ncsc1-c1ccc([C@H](C)NC(=O)[C@@H]2C[C@@H](O)CN2C(=O)[C@@H](NC(=O)CCCc2cn(CCOCCOCCNC(=O)[C@H](C)CC(=O)C[C@@H](C)[C@H]3C[C@H](O)[C@@]4(C)C5=C(C(=O)C[C@]34C)[C@@]3(C)CCC(=O)C(C)(C)[C@@H]3C[C@@H]5O)nn2)C(C)(C)C)cc1 | 40.8% | 37.7% | 74.1% | 84.6% | 101%
3 |  |  | C[C@H](CC(=O)C[C@@H](C)[C@H]1C[C@H](O)[C@@]2(C)C3=C(C(=O)C[C@]12C)[C@@]1(C)CCC(=O)C(C)(C)[C@@H]1C[C@@H]3O)C(=O)NCCOCCn1cc(CNc2cccc3c2C(=O)N(C2CCC(=O)NC2=O)C3=O)nn1 (some centres not stated) | 81.8% | 73.1% | 92.2% | 110% | 99.2%
4 |  |  | Cc1ncsc1-c1ccc([C@H](C)NC(=O)[C@@H]2C[C@@H](O)CN2C(=O)[C@@H](NC(=O)CCCCc2cn(CCOCCNC(=O)[C@H](C)CC(=O)C[C@@H](C)[C@H]3C[C@H](O)[C@@]4(C)C5=C(C(=O)C[C@]34C)[C@@]3(C)CCC(=O)C(C)(C)[C@@H]3C[C@@H]5O)nn2)C(C)(C)C)cc1 | 81.9% | 70.8% | 88.2% | 94% | 97%
5 |  |  | Cc1ncsc1-c1ccc([C@H](C)NC(=O)[C@@H]2C[C@@H](O)CN2C(=O)[C@@H](NC(=O)CCCc2cn(CCOCCNC(=O)[C@H](C)CC(=O)C[C@@H](C)[C@H]3C[C@H](O)[C@@]4(C)C5=C(C(=O)C[C@]34C)[C@@]3(C)CCC(=O)C(C)(C)[C@@H]3C[C@@H]5O)nn2)C(C)(C)C)cc1 | 66.9% | 41.8% | 58.4% | 105% | 97%
6 |  |  | COc1cccc2c1C(=O)c1c(O)c3c(c(O)c1C2=O)C[C@@](O)(C(=O)CO)C[C@@H]3O[C@H]1C[C@H](N)[C@H](O)[C@H](C)O1 [DOXORUBICIN] | 57.5% | 39.4% | 56.2% | 64.3% | 
7 | inactive | inactive | CC(=O)N[C@H](C(=O)N1C[C@H](O)C[C@H]1C(=O)N[C@@H](C)c1ccc(-c2scnc2C)cc1)C(C)(C)C |  |  |  |  | 
8 | inactive | inactive | C[C@H](CC(=O)C[C@@H](C)[C@H]1C[C@H](O)[C@@]2(C)C3=C(C(=O)C[C@]12C)[C@@]1(C)CCC(=O)C(C)(C)[C@@H]1C[C@@H]3O)C(=O)O [GANODERIC ACID A] | 84.7% | 84.8% | 98.9% | 87.2% | 
9 |  |  | C[C@H](CC(=O)C[C@@H](C)[C@H]1C[C@H](O)[C@@]2(C)C3=C(C(=O)C[C@]12C)[C@@]1(C)CCC(=O)C(C)(C)[C@@H]1C[C@@H]3O)C(=O)NCc1cn(CCOCCOCCOCCOCCNc2cccc3c2C(=O)N(C2CCC(=O)NC2=O)C3=O)nn1 (some centres not stated) | 57.2% | 57.9% | 95.9% | 125% | 98.3%
10 |  |  | C[C@H](CC(=O)C[C@@H](C)[C@H]1C[C@H](O)[C@@]2(C)C3=C(C(=O)C[C@]12C)[C@@]1(C)CCC(=O)C(C)(C)[C@@H]1C[C@@H]3O)C(=O)NCCCn1cc(CNc2cccc3c2C(=O)N(C2CCC(=O)NC2=O)C3=O)nn1 (some centres not stated) | 70.5% | 56.2% | 75.7% | 116% | 94.9%
11 |  |  | Cc1ncsc1-c1ccc([C@H](C)NC(=O)[C@@H]2C[C@@H](O)CN2C(=O)[C@@H](NC(=O)CCCc2cn(CCOCCOCCOCCOCCNC(=O)[C@H](C)CC(=O)C[C@@H](C)[C@H]3C[C@H](O)[C@@]4(C)C5=C(C(=O)C[C@]34C)[C@@]3(C)CCC(=O)C(C)(C)[C@@H]3C[C@@H]5O)nn2)C(C)(C)C)cc1 | 30.1% | 28.7% | 61.7% | 94.8% | 96.9%
12 |  |  | C[C@H](CC(=O)C[C@@H](C)[C@H]1C[C@H](O)[C@@]2(C)C3=C(C(=O)C[C@]12C)[C@@]1(C)CCC(=O)C(C)(C)[C@@H]1C[C@@H]3O)C(=O)NCCOCCOCCn1cc(CNc2cccc3c2C(=O)N(C2CCC(=O)NC2=O)C3=O)nn1 (some centres not stated) | 76.8% | 71.6% | 85.9% | 105% | 98.7%
13 |  |  | Cc1ncsc1-c1ccc([C@H](C)NC(=O)[C@@H]2C[C@@H](O)CN2C(=O)[C@@H](NC(=O)CCCCc2cn(CCCNC(=O)[C@H](C)CC(=O)C[C@@H](C)[C@H]3C[C@H](O)[C@@]4(C)C5=C(C(=O)C[C@]34C)[C@@]3(C)CCC(=O)C(C)(C)[C@@H]3C[C@@H]5O)nn2)C(C)(C)C)cc1 | 57.9% | 97.5% | 84.6% | 96.5% | 102%
14 |  |  | Cc1ncsc1-c1ccc([C@H](C)NC(=O)[C@@H]2C[C@@H](O)CN2C(=O)[C@@H](NC(=O)CCCc2cn(CCOCCOCCOCCNC(=O)[C@H](C)CC(=O)C[C@@H](C)[C@H]3C[C@H](O)[C@@]4(C)C5=C(C(=O)C[C@]34C)[C@@]3(C)CCC(=O)C(C)(C)[C@@H]3C[C@@H]5O)nn2)C(C)(C)C)cc1 | 42.7% | 25.5% | 61.8% | 89.2% | 90.2%
15 |  |  | C[C@H](CC(=O)C[C@@H](C)[C@H]1C[C@H](O)[C@@]2(C)C3=C(C(=O)C[C@]12C)[C@@]1(C)CCC(=O)C(C)(C)[C@@H]1C[C@@H]3O)C(=O)NCc1cn(CCCNc2cccc3c2C(=O)N(C2CCC(=O)NC2=O)C3=O)nn1 (some centres not stated) | 65.9% | 73.8% | 79.6% | 58.4% | 96.7%
16 |  |  | C[C@H](CC(=O)C[C@@H](C)[C@H]1C[C@H](O)[C@@]2(C)C3=C(C(=O)C[C@]12C)[C@@]1(C)CCC(=O)C(C)(C)[C@@H]1C[C@@H]3O)C(=O)NCCOCCOCCOCCn1cc(CNc2cccc3c2C(=O)N(C2CCC(=O)NC2=O)C3=O)nn1 (some centres not stated) | 65.5% | 69.7% | 83.4% | 81.3% | 97.2%
17 |  |  | Cc1ncsc1-c1ccc([C@H](C)NC(=O)[C@@H]2C[C@@H](O)CN2C(=O)[C@@H](NC(=O)CCCCc2cn(CCOCCOCCNC(=O)[C@H](C)CC(=O)C[C@@H](C)[C@H]3C[C@H](O)[C@@]4(C)C5=C(C(=O)C[C@]34C)[C@@]3(C)CCC(=O)C(C)(C)[C@@H]3C[C@@H]5O)nn2)C(C)(C)C)cc1 | 41.4% | 31.6% | 77.1% | 86.8% | 95.9%
18 |  |  | C[C@H](CC(=O)C[C@@H](C)[C@H]1C[C@H](O)[C@@]2(C)C3=C(C(=O)C[C@]12C)[C@@]1(C)CCC(=O)C(C)(C)[C@@H]1C[C@@H]3O)C(=O)NCc1cn(CCOCCNc2cccc3c2C(=O)N(C2CCC(=O)NC2=O)C3=O)nn1 (some centres not stated) | 60.7% | 48.6% | 88.2% | 85.8% | 83.2%
19 |  |  | C[C@H](CC(=O)C[C@@H](C)[C@H]1C[C@H](O)[C@@]2(C)C3=C(C(=O)C[C@]12C)[C@@]1(C)CCC(=O)C(C)(C)[C@@H]1C[C@@H]3O)C(=O)NCc1cn(CCOCCOCCNc2cccc3c2C(=O)N(C2CCC(=O)NC2=O)C3=O)nn1 (some centres not stated) | 71.2% | 63.1% | 60.6% | 88.8% | 78.2%
20 |  |  | Cc1ncsc1-c1ccc([C@H](C)NC(=O)[C@@H]2C[C@@H](O)CN2C(=O)[C@@H](NC(=O)CCCc2cn(CCCNC(=O)[C@H](C)CC(=O)C[C@@H](C)[C@H]3C[C@H](O)[C@@]4(C)C5=C(C(=O)C[C@]34C)[C@@]3(C)CCC(=O)C(C)(C)[C@@H]3C[C@@H]5O)nn2)C(C)(C)C)cc1 | 87% | 99.1% | 81.5% | 90.1% | 89.1%
21 |  |  | C[C@H](CC(=O)C[C@@H](C)[C@H]1C[C@H](O)[C@@]2(C)C3=C(C(=O)C[C@]12C)[C@@]1(C)CCC(=O)C(C)(C)[C@@H]1C[C@@H]3O)C(=O)NCCOCCOCCOCCOCCn1cc(CNc2cccc3c2C(=O)N(C2CCC(=O)NC2=O)C3=O)nn1 (some centres not stated) | 75.9% | 90.2% | 83% | 130% | 91.9%
